Reference: paper PMC5805504 (Oncotarget, 2017)

Key:
[1] = set-up: method as in PMID 21859884; settings: rats; cited from earlier work
U87MG xenograft tumors = assay: U87MG glioblastoma xenograft tumor model; settings: galunisertib 25 mg/kg BID oral; lomustine (CCNU) 30 mg/kg single intraperitoneal dose; alone or combined
Procedure: Five million U87MG glioblastoma cells, obtained from ATCC (Manassas, VA), were injected subcutaneously in the flank of 8- to 9-week old, female, athymic nude mice (Harlan, Indianapolis, IN) in a 1:1 mixture of 1x PBS and matrigel (Becton Dickinson, Bedford, MA). Mice were monitored daily for palpable tumors. […] The tumor volumes were recorded at regular intervals following treatment.

Row | SMILES | cardiac valve lesions [1] | anti-tumor effect (tumor volume) (U87MG xenograft tumors)
1 | c1ccc(-c2nc3c(c(-n4ccc5cnccc54)n2)CCC3)nc1 [AZ12601011] | induced cardiac valve lesions | 
2 | O=NN(CCCl)C(=O)NC1CCCCC1 [lomustine, reference compound] |  | antitumor activity
